# Measurements taken from patent publication US8110543B2, “Anti-invasive and anti-angiogenic compositions” (Angstrom Pharmaceuticals, Inc., priority 1997, dated 2012).
# Entries after “also recorded” stand apart in the source; their conditions may differ.
# Legend:
# scuPA-suPAR complex = scuPA-suPAR complex (Homo sapiens, UniProt P00749); assay: Clot lysis assay ([125I] fibrin clots); assay type: biochemical; conditions: 30 minutes after initiation of clot lysis (FIG. 3)
# Description: Fibrin clots were formed by supplementing plasma with [^125I] fibrinogen. Clotting was initiated by adding thrombin and calcium to the plasma mixture. Clots were washed to remove any free radioactivity, plasminogen and the activator to be tested were added to the clot and the release of [^125I] fibrin degradation products was monitored. The data presented in this figure is at 30 minutes after initiation of clot lysis. scuPA-suPAR: dose response with Å6 on clot lysis by scuPA-suPAR complex; scuPA: dose response on clot lysis by scuPA alone; scuPA/suPAR+scrambled pep: dose response with a scrambled version of Å6 (Ac-[sequence]-Am) (SEQ ID NO: 10).
# HepG2 = assay: In vitro proliferation, HepG2 cells; assay type: cell-based
# Description: (§1) Å6 was also tested for its ability to inhibit the proliferation of cells other than endothelial cells in vitro.
# [1] = system: PC-3 and Mat B III tumor cells
# scuPA-suPAR = scuPA-suPAR (Homo sapiens, UniProt P00749); assay: Activation of plasminogen by scuPA-suPAR with small chromogenic substrates; assay type: biochemical
# [2] = system: human prostate cancer line PC-3; assay: Matrigel invasion assay, PC-3 cells; assay type: cell-based; conditions: 5 μM (FIG. 1, FIG. 2)
# Description: (§2) Several peptides were tested for anti-invasive capacity in a Matrigel® invasion assay system as indicated above (Kleinman et al., supra; Parish et al., supra). Several invasive human tumor lines (PC-3, MDA-MB-231) and non-human tumors (3LL, Mat B-III) were examined. The rat breast cancer line Mat B III and the human prostate cancer line PC-3 were initially used.
# (§3) Tumor cells (5×10^5/mL, in a volume of 200 μL) in serum-free RPMI 1640 medium were added to a disposable transwell invasion chamber coated with Matrigel® (Becton Dickinson, Lincoln Park, N.J.). The invasion chambers were placed in 24-well tissue culture plates filled with serum-free RPMI-1640 and the plates were placed in an atmosphere of 5% CO2 in humidified air at 37° C. for 48-72 hours. The chambers were then removed, inverted, and the cells which had invaded (and now appeared on the bottom face of the invasion chamber) were fixed and stained using Diff-Quick® (Scientific Products). Cells were counted in 10 different fields on each filter and an average obtained.
# 3LL cells = assay: Tumor angiogenesis (microvessel density) in 3LL model; assay type: in vivo, Mice; conditions: 100-250 mg/kg/day; compared to controls
# Description: Angiogenesis is measured by determining microvessel density using immunostaining for CD31 (also known as platelet-endothelial cell adhesion molecule or PECAM). Results are reported as the average microvessel density of 5 fields each from 5 different sections (Penfold et al., 1996). Typically, the whole tumor is excised, sectioned and the sections examined histologically for microvessel density using appropriate stains or labels for other markers.
# Angiogenesis induced by tumor growth and metastasis in vivo is examined in the models systems described above. Mice injected with 3LL cells are treated either with peptide or with vehicle and are sacrificed at various time points. Angiogenesis is assessed by determining microvessel density (MVD) using an antibody specific for microvascular endothelium or other markers of growing blood vessels, such as PECAM (CD31). Such an antibody is employed in conventional immunohistological methods to immunostain tissue sections as described by Penfold et al., supra. A large number of such antibodies is commercially available, for example the JC70 mAb. The MVD are correlated with other measures of tumor behavior including lymph node status and primary tumor size and rate of growth. In humans as reported by Penfold et al., supra, tumor MVD correlates with lymph node metastasis and is independent of tumor size, growth rate or type of histological differentiation.
# The compounds are given i.v., i.p., or by osmotic minipump Typical dosages are 100-250 mg/kg/day. At various time points, two animals are sacrificed, and the tumor tissue and surrounding tissue is prepared for histological examination. Results are reported as the average microvessel density of 5 fields each from 5 different sections. The following seven compounds are tested: Ac-[…]-Am (SEQ ID NO:2), Ac-[…]-Am (SEQ ID NO: 6) (disubstitution variant at positions 3 and 4), Ac-[…]-Am (SEQ ID NO: 7) (disubstitution variant at positions 7 and 8), Ac-[…]-Am (SEQ ID NO: 8) (substitution variant at position 1), Ac-PSSPPEE-Am (SEQ ID NO: 4) (deletion variant, position 1 of SEQ ID NO:2 deleted), Ac-KPSSPPE-Am (SEQ ID NO: 5) (deletion variant, position 8 of SEQ ID NO:2 deleted), and Ac-[…]-Am (SEQ ID NO:1).
# Acute toxicity in mice = assay type: in vivo; conditions: observed for 3 days
# Description: Acute toxicity was evaluated at three different doses of Å6 (1500 mg/kg, 500 mg/kg and 250 mg/kg). Mice (n=6) were infused (i.v,) with a bolus of Å6 over 5-10 minutes and observed for 3 days.
# [3] = system: rat breast cancer line Mat B III; assay: Matrigel invasion assay, Mat B-III cells; assay type: cell-based; conditions: FIG. 1 (5 μM), FIG. 7, FIG. 8
# Description: as §2, §3
# [4] = system: SMC (aortic smooth muscle cells); assay: In vitro proliferation, SMC; assay type: cell-based
# Description: as §1
# HeLa = assay: In vitro proliferation, HeLa cells; assay type: cell-based
# Description: as §1
# [5] = cynomolgus monkey, in vivo, iv, 37.5 mg/kg
# Description: An LC/MS assay developed for the detection of Å6 in plasma has been validated for mouse and monkey plasma.
# MDA-MB-231 = assay: In vitro proliferation, MDA-MB-231 cells; assay type: cell-based, human
# Description: as §1
substance,measurement,setting,value
"Ac-KPSSPPEE-NH2 [Å6, CH3CO-Lys-Pro-Ser-Ser-Pro-Pro-Glu-Glu-NH2]",scuPA-suPAR mediated clot lysis,scuPA-suPAR complex,inhibits
same,"anti-proliferative effect, HepG2",HepG2,No anti-proliferative effects
same,cytotoxicity to the cells,[1],not cytotoxic
same,inhibition of cell proliferation,[1]; tumor cells of the invasion assay,nor did it inhibit cell proliferation
same,effect on activation of plasminogen by scuPA-suPAR,scuPA-suPAR,did not affect
same,in vitro invasion of PC-3 cells in a Matrigel system,[2],inhibited the invasion
same,number of microvessels in the region of the primary tumor,3LL cells,significant reduction
same,overt toxicity,"Acute toxicity in mice; 1500, 500 and 250 mg/kg i.v. bolus over 5-10 minutes",No evidence for overt toxicity
same,survival after acute dosing,"Acute toxicity in mice; 1500, 500 and 250 mg/kg i.v. bolus",all the animals survived
same,invasion of Mat B-III cells through Matrigel,[3],optimal; also recorded: inhibits the invasion
same,invasion of Mat B-III cells through Matrigel,[3]; listed as Ac-KPSSPPEE-Am,inhibited the invasion
same,"anti-proliferative effect, SMC",[4],No anti-proliferative effects
same,"anti-proliferative effect, HeLa",HeLa,No anti-proliferative effects
same,clearance,[5],0.7 mL/min/kg
same,half-life,[5],24 min
same,"anti-proliferative effect, MDA-MB-231",MDA-MB-231,No anti-proliferative effects
